Measured values as given in patent US11732264B2, “Compositions and methods for treating COVID-19” (Vast Sea Biotechnology, Inc., priority 2020, dated 2023).
Like-named read-outs stand apart in the source and are kept apart here. d = 2'-deoxy (DNA); r = 2'-OH (RNA)

What was measured:
Assay type in all cases: cell-based
SARS-CoV-2 N-protein [1] = settings: HSAEC, qRT-PCR
SARS-CoV-2 N-protein [2] = settings: HBTEC, qRT-PCR
SARS-CoV-2 N-protein [3] = settings: HNEpC, qRT-PCR
[4] = oligos 24-48 hours, with lipofectamine
[5] = oligos 24-48 hours, lipofectamine or Arginine not stated at the result

## TGTTAATTGGAACGCCTTGTC (Cy3 label, position not given here) [VS_ASO_2-Cy3]
SARS-CoV-2 N-protein [1]; [4]
  down-regulation of SARS-CoV-2 N-protein expression: about 1.5 fold
SARS-CoV-2 N-protein [2]; [4]
  down-regulation of SARS-CoV-2 N-protein expression: about 6 fold
SARS-CoV-2 N-protein [3]; [5]
  down-regulation of SARS-CoV-2 N-protein expression: about 15 fold

## TGTTAATTGGAACGCCTTGTC (FANA modified, pattern not given here, FITC label) [VS_ASO_1-FANA-FITC]
SARS-CoV-2 N-protein [1]; oligo 24-48 hours, without any reagents
  down-regulation of SARS-CoV-2 N-protein expression: about 6 fold
SARS-CoV-2 N-protein [2]; without any reagents
  down-regulation of SARS-CoV-2 N-protein expression: about 8 fold
SARS-CoV-2 N-protein [3]; without any reagents
  down-regulation of SARS-CoV-2 N-protein expression: about 350 fold

## VS_DsiRNA-Cy5: DsiRNA SEQ ID NOs: 23 & 24, target N-protein, Cy5 labeled (chain 1 AAACUAAAAUGUCUGAUAAUGGACC; chain 2 GGUCCAUUAUCAGACAUUUUAGUUUGU; chain 1: sugars from the 5' end r23 d2, backbone not given here; chain 2: chemistry not given here; Cy5 label)
SARS-CoV-2 N-protein [1]; [4]
  down-regulation of SARS-CoV-2 N-protein expression: about 5 fold
SARS-CoV-2 N-protein [2]; [4]
  down-regulation of SARS-CoV-2 N-protein expression: about 4 fold
SARS-CoV-2 N-protein [3]; [5]
  down-regulation of SARS-CoV-2 N-protein expression: about 90 fold
